According to patent US20070027067A1, “Transition-state Inhibitors of Pin1, alpha-Ketoamide-containing peptidomimetics, and synthesis thereof” (priority 2005, published 2007):

Assay: stability of the product in solution
Assay type: physicochemical
Details: CDCl3 solution, after 2 days; decomposition product appears to be a cyclic dimer (bis-lactone)
From the text: The compound 7 characterized by MS was obtained in 30% yield. […] The decomposition product appears to be a cyclic dimer (bis-lactone) of 7. [drawing 8] [drawing 9]

- stability in solution (decomposition): totally decomposed
SMILES: O=C(N[C@@H](CO)C(=O)C(=O)N1CCC[C@H]1C(=O)O)OCC1c2ccccc2-c2ccccc21 [Compound 7]
